Test results reported in patent publication US6514963B2, “Methods for the inhibition of egg production in trematodes” (The Regents of the University of California, priority 2000, dated 2003).

Assays:
[1] = biological target: T1, L channels of isolated skeletal muscle (Oryctolagus cuniculus, UniProt P07293); conditions: read-out: concentration of calcium required for 50% inhibition (Ki) of verapamil binding; isolated skeletal muscle (Galizzi et al. 1984); cited from earlier work
T1 construct: host or cells: isolated skeletal muscle
T1 sequence (P07293 whole entry): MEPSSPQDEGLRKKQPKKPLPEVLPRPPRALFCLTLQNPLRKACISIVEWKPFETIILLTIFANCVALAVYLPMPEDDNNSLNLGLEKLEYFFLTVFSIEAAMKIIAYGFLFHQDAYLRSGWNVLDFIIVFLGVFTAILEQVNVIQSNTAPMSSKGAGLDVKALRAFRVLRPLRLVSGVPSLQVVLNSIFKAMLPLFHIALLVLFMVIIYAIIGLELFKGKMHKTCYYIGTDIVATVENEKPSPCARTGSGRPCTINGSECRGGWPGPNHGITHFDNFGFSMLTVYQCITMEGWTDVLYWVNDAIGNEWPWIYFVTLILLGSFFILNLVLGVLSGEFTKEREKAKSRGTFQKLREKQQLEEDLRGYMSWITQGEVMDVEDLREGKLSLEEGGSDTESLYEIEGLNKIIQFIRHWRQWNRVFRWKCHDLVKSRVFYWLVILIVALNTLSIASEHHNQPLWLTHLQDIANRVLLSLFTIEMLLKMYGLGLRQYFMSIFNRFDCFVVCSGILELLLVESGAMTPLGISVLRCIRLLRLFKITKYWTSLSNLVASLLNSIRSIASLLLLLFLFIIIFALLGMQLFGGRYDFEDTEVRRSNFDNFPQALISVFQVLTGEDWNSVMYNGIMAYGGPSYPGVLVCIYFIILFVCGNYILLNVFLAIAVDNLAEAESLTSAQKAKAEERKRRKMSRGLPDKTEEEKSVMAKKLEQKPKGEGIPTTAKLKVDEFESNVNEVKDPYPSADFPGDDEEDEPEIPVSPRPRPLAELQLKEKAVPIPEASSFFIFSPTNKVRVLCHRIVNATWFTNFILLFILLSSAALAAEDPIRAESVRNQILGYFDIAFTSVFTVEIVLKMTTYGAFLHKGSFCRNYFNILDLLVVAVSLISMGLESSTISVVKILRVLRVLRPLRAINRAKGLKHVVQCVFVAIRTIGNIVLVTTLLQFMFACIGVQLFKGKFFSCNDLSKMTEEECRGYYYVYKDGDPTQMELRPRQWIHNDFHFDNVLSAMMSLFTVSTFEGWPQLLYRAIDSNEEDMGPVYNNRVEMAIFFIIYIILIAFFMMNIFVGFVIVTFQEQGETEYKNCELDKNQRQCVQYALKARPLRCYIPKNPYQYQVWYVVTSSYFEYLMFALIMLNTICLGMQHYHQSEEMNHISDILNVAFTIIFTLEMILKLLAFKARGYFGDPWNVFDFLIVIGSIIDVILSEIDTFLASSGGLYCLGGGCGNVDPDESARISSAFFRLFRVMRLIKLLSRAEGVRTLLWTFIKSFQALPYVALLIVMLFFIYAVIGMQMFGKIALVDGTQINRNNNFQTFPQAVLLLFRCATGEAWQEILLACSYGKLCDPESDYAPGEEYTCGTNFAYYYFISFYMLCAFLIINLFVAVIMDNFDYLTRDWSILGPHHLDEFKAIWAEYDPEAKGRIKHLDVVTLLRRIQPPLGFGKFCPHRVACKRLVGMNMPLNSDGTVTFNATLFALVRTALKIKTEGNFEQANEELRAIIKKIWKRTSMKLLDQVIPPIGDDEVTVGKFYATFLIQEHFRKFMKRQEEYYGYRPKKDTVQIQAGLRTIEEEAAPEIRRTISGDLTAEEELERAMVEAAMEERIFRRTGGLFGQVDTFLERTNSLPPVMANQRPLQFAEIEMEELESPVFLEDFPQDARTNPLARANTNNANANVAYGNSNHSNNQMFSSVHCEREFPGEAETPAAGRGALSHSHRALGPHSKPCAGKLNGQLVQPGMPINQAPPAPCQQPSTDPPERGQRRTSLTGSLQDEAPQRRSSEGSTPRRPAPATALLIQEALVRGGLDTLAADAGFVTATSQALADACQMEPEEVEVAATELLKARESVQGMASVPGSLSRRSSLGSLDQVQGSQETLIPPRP
T1 sequence (P13806 27-960 partner limits assumed): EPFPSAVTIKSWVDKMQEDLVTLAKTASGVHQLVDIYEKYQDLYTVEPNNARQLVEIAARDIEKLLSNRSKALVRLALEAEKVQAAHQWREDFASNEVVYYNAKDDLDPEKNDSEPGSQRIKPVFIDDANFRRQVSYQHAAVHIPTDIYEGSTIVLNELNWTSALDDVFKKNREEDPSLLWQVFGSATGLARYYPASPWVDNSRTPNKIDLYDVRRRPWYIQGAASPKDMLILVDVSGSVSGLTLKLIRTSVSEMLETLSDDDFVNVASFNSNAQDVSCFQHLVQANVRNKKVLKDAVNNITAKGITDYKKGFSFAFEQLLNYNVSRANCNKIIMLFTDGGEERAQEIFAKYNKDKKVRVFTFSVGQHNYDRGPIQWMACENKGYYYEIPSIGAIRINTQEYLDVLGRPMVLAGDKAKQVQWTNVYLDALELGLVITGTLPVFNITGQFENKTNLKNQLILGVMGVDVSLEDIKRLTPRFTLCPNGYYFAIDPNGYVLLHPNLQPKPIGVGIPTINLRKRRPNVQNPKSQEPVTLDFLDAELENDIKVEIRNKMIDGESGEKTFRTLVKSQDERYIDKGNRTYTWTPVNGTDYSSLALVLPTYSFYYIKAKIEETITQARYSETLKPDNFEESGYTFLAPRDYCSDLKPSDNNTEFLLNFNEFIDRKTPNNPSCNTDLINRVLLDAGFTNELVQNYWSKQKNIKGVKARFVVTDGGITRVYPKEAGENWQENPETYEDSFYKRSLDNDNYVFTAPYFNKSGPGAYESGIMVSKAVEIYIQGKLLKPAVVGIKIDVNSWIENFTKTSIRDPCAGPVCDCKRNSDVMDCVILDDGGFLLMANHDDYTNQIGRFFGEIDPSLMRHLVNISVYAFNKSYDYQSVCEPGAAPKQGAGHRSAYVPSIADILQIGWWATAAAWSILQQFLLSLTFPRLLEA
T1 sequence (P13806 961-1106 partner limits assumed): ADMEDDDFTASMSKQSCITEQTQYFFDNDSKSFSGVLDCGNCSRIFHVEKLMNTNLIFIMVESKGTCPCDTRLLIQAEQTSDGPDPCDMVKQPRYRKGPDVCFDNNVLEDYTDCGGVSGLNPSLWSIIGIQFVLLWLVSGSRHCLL
T1 sequence (P19517 whole entry partner): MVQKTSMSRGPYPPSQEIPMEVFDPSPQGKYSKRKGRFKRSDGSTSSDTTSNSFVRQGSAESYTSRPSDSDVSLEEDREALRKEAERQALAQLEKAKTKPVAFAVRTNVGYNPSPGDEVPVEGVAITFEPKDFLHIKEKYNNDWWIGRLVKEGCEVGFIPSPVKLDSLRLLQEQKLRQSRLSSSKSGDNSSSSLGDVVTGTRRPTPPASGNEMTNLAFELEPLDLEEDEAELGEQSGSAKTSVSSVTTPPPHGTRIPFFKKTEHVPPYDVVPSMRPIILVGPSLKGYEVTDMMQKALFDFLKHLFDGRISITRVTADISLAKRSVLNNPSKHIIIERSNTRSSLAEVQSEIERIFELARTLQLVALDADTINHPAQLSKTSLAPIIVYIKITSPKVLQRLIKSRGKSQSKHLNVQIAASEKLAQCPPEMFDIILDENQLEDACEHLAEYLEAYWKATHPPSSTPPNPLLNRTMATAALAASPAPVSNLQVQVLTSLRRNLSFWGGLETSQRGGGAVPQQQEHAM
T1 sequence (P19518 whole entry partner): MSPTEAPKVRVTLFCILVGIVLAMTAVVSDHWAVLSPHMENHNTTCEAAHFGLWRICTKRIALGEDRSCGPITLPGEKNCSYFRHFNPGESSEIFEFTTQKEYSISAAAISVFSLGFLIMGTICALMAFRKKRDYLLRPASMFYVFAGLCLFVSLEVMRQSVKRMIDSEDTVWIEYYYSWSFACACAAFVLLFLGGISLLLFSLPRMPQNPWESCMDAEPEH

Schistosoma mansoni = Schistosoma mansoni in vitro egg production, eight day culture of worm pairs; format: cell-based
Echinostoma caproni = conditions: elevated concentrations (microgram range: verapamil 50-200, nifedipine 25-200, diltiazem 5-50 μg/ml), 24 hours, ANOVA

| SMILES | Ki [1] | effect on proportion of worms which did not produce eggs until after 48 hours of culture (Schistosoma mansoni; 0.25 μg/ml) | effect on proportion of worms producing eggs in the three production categories (Schistosoma mansoni; 0.25 μg/ml and 2.5 μg/ml, Chi Square 4.15, p=0.386) | effect on proportion of worms which did not produce eggs until after 48 hours of culture (Schistosoma mansoni; 2.5 μg/ml, Fisher's exact test, p=0.013) | decrease in the total number of eggs produced by all worms of the treatment group (Schistosoma mansoni; 2.5 μg/ml, eight days) | worms in the highest egg-production category (Schistosoma mansoni; 2.5 μg/ml, control worms 34%) | proportion of non-producers (Schistosoma mansoni; 25 μg/ml as printed, control worms 17%) | effect on proportion of non-producers, pairwise comparison with control (Schistosoma mansoni; 50 μg, Fisher Exact test, 2-tailed, p<0.0001) | decrease in the total number of eggs produced by all worms of the treatment group (Schistosoma mansoni; 50 μg/ml, eight days) | egg production (Schistosoma mansoni; 50 μg/ml, eight days) | number of worms producing eggs 48+ Hours (Schistosoma mansoni; verapamil 0.25 μg/ml) | number of worms producing eggs within 48 Hours (Schistosoma mansoni; verapamil 0.25 μg/ml) | number of worms producing eggs 48+ Hours (Schistosoma mansoni; verapamil 2.5 μg/ml) | number of worms producing eggs within 48 Hours (Schistosoma mansoni; verapamil 2.5 μg/ml) | number of worms producing eggs 48+ Hours (Schistosoma mansoni; verapamil 50 μg/ml) | number of worms producing eggs within 48 Hours (Schistosoma mansoni; verapamil 50 μg/ml) | effect on egg production compared to controls (Echinostoma caproni) |
| --- | --- | --- | --- | --- | --- | --- | --- | --- | --- | --- | --- | --- | --- | --- | --- | --- | --- |
| [Ca] [calcium] | ~300 µM |  |  |  |  |  |  |  |  |  |  |  |  |  |  |  |  |
| COc1ccc(CCN(C)CCCC(C#N)(c2ccc(OC)c(OC)c2)C(C)C)cc1OC (stereo not drawn) [verapamil, α-[3-[[2-(3,4-dimethoxyphenyl)ethyl]methyl-amine]propyl]-3,4-dimethoxy-α-(1-methylethyl)-benzeneacetonitrile] |  | not | did not significantly affect | significantly increased | 38% | 15% | 30% | significantly affected egg production | 100% | no eggs were produced at any time | 8 | 24 | 14 | 14 | 0 | 0 | significantly inhibited |
